Where two headings read alike, the source gives them in different places. Starred links: 1 amine or outer side, 2 acyl side, 3 side chain; linkers in the order of their positions; H or OH if unused. Positions of bridges follow the written chain, without caps; N, C: chain ends. Non-standard residues stand in square brackets, D forms with d. Residues, ends and D or L forms follow the SMILES beside them. X4 = CC(C)CCC=CCCC[C@H](CC(=O)[*:1])O[*:2]; X6 = CC(C)CCCCC=CC[C@H](CC(=O)[*:1])O[*:2]; X5 = CC(C)CCCCCCC[C@H](CC(=O)[*:1])O[*:2]; X3 = CC(C)CCCCC[C@H](CC(=O)[*:1])O[*:2]; X7 = CCCCCCC=CC[C@H](CC(=O)[*:1])O[*:2]; X2 = CCCCCCC[C@H](CC(=O)[*:1])O[*:2]; Val(3-OH) = CC(C)(O)[C@H](N)C(=O)O; X1 = C/C=C(/N[*:1])C(=O)[*:2]; Dab = NCC[C@H](N)C(=O)O; Dap = NC[C@H](N)C(=O)O
Key:
in vitro = format: cell-based; details: human, pH 7.4, Hemolysis (%)
Protocol: (§1) positive control (Bortezomib) SI of <5%. The half maximal inhibitory concentration (IC50) was determined from log concentration-effect curves using non-linear regression analysis.
(§2) Frequency of resistance (FoR). For the determination of the FoR, the MIC of compound 2 was first evaluated on solid MH-agar medium prepared in 35 mm diameter plates. Each plate contained 4 mL agar with the appropriate amount of compound. Bacterial cultures were grown and prepared as described for the MIC assay. 13 µL of bacterial culture diluted to 0.5 MacFarland was inoculated into 1 mL 0.9% NaCl resulting in ~2 × 10^6 CFU/mL. 5 µL of this bacterial suspension was spotted onto the surface of each agar plate (~10^4 CFU/spot). Plates were sealed and incubated at 37°C for 18–20 hours. Agar MIC was recorded according to CLSI guidelines as the lowest concentration of […]
faint haze caused by the inoculum. Then 9 cm plates were prepared with 25 mL MHII agar medium containing 4 × or 8 × solid MIC concentrations of test compounds and seeded with 100 µL of a bacterial preparation, concentrated by centrifugation from overnight cultures and resuspended in 0.9% NaCl, corresponding to 108 CFU and 109 CFU per plate, and spread on the agar using 4–5 glass beads of 4 mm diameter. Since CFU were evaluated using the McFarland turbidity standard, the exact CFU number plated was evaluated by plating of serial dilutions of each inoculum preparation on MHII agar plates. Plates were incubated at 37°C and colonies were counted at 24 h and 48 h post-plating. The frequencies of resistance were then calculated by counting the number of validated resistant colonies growing on antibiotic preparations divided by the evaluated number of CFU in the inoculum.
Hemolysis assay. Compounds were evaluated for hemolytic activity using red blood cells from heparinized human blood. Red blood cells (RBC) were washed three times in Tyrode buffer (130 mM NaCl, 4 mM KCl, 2.8 mM NaOAc, 1 mM MgCl2, 10 mM HEPES, 10 mM glucose, 1 mM CaCl2, adjusted to pH 7.4) and resuspended in the same buffer. Final concentrations in the hemolysis assay were: 100 µM compound, 1% DMSO, and 50% RBC, assayed in a 200 µL volume in a microtiter plate. The mixture was incubated at 37 °C for 45 min with shaking (250 rpm). After incubation, RBCs were removed by centrifugation (1000 × g for 10 min), 100 µL clear plasma was transferred to a fresh microtiter plate, and the amount of hemoglobin measured using a spectrophotometer at 540 nm. The […]
complete lysis control contained 2% Triton X-100 (in Tyrode buffer) instead of compound; the negative control contained Tyrode buffer but no compound. Percent hemolysis was calculated as:
[Abs compound] - [Abs negative control] / [Abs complete lysis control] - [Abs negative control] ×
100. Values greater than 1% hemolysis at 100 µM were regarded as a red flag.
Bacterial membrane permeabilization assay. Liposomes were manufactured and permeabilization assayed as described previously.8 Briefly, dry lipid films of E. coli polar lipid extract were formed on round-bottom flask walls. This was achieved by dissolving lipids in chloroform and evaporating the solvent under agitation and nitrogen gas flow, followed by incubation in vacuum chamber. Lipid films were re-suspended by 30 min stirring (E. coli) at 55°C in an aqueous solution of 100 mM 5(6)-carboxyfluorescein in 10 mM Tris buffer (set to pH 7.4 at 37°C). Suspensions were subjected to repeated extrusion through a 100 nm pore size polycarbonate membrane in order to reduce multilamellar structures and polydispersity. Un-trapped carboxyfluorescein was removed by gel filtration. Membrane permeability was measured by monitoring carboxyfluorescein efflux from the liposomes to the external low concentration environment, resulting in loss of self-quenching and an increased fluorescence signal. The 96-well plates were prepared with a 2-fold serial dilution of the samples in Tris buffer, as well as negative controls (background) and 0.16% Triton X-100 (maximum […]
leakage). […]

HepG2 cells = test: In vitro cytotoxicity, fluorometric microculture cytotoxicity assay; format: cell-based; details: Homo sapiens, HepG2 liver, 72 h
Protocol: 10^8 CFU/mL) with turbidity assessed using a Sensititre Nephelometer (Trek Diagnostics Systems Ltd, UK). 50 µL of this bacterial suspension was transferred to 10 mL of MHII broth to give a final bacterial concentration ≅ 5 × 10^5 CFU/mL (acceptable range 3 – 7 × 10^5 CFU/mL). 50 µL of bacterial suspension was pipetted into each well (except the medium control well, where 50 µL MHII was pipetted). Final volume in each well was 100 µL. Plates were covered and incubated without shaking for 18-20 h at 35 °C ± 2 °C. MIC was read visually, as complete inhibition of growth by the unaided eye, using the medium-only wells as the control. Each compound was assayed at least in duplicate.
Additionally, the MIC for compound 2 against clinical carbapenem-resistant strains of A. baumannii […]
determined at the Public Health Agency of Sweden (according to EUCAST recommendations).
In vitro Cytotoxicity Determination. In vitro cytotoxicity was determined by a fluorometric microculture cytotoxicity assay,7 based on hydrolysis of fluorescein diacetate to fluorescein by cells with intact plasma membranes. In short, HepG2 cells (hepatocellular carcinoma cells, ATCC), in Eagle's Minimum Essential Medium (ATCC) supplemented with 10 % fetal bovine serum, penicillin/streptomycin (100 U/100 µg/mL) and 2 mM L-glutamine, were seeded in 384-well assay plates at a density of 1000 cells/well. The cells were incubated over night at 37°C and compounds in 10 mM DMSO were added, to obtain final concentrations 64 µM – 0.25 µM in two-fold dilutions.
After incubation for 72 h at 37°C, the cells were pelleted and washed. Fluorescein diacetate was added (1 µL, 0.5 mg/mL) and the fluorescence [485 nm(exc)/530 nm(em.)] was measured after 50 min at 37°C. Bortezomib (2 µM) was used as positive control and dose response testing of doxorubicin (top concentration 2 µM) was performed repeatedly to follow assay performance over time. Cytotoxicity was assessed after 72 h with cell survival presented as survival index (SI, %) defined as fluorescence in test wells in percent of control cultures with blank values subtracted.
Criteria for a successful assay include a signal-to-noise ratio in control cultures >10, CV <30% and a 7 Lindhagen, E., Nygren, P., and Larsson, R. (2008) The fluorometric microculture cytotoxicity assay. Nat. […]
as §1, §2
faint haze caused by the inoculum. Then 9 cm plates were prepared with 25 mL MHII agar medium containing 4 × or 8 × solid MIC concentrations of test compounds and seeded with 100 µL of a bacterial preparation, concentrated by centrifugation from overnight cultures and resuspended in 0.9% NaCl, corresponding to 108 CFU and 109 CFU per plate, and spread on the agar using 4–5 glass beads of 4 mm diameter. Since CFU were evaluated using the McFarland turbidity standard, the exact CFU number plated was evaluated by plating of serial dilutions of each inoculum preparation on MHII agar plates. Plates were incubated at 37°C and colonies were counted at 24 h and 48 h post-plating. The frequencies of resistance were then calculated by counting the number of validated resistant colonies growing on antibiotic preparations divided by the evaluated number of CFU in the inoculum. […]

Row | Structure (SMILES) | hemolysis at 45 min, 100 µM (in vitro) [%] | IC50 (HepG2 cells; read-out: IC50(μM) HepG2) [µM] | IC50 (HepG2 cells; read-out: IC50(μg/mL) HepG2) [µg/mL]
1 | C/C=C1/NC(=O)[C@H](CCN)NC(=O)[C@H](CC(C)C)NC(=O)[C@H](CN)NC(=O)C[C@@H](CCCCCC(C)C)OC(=O)[C@H](CC(=O)O)NC(=O)[C@H](C(C)(C)O)NC(=O)[C@@H](Cc2ccccc2)NC(=O)[C@H](CN)NC(=O)[C@H]([C@@H](C)O)NC1=O [Compound 1, cyclo(3-hydroxy-9-methyldecanoyl-DAPA1-Leu-DABA-ABA-Thr-DAPA2-Phe-OHVal-Asp)] ([Dap]L[Dab][X1]T[Dap][dF][Val(3-OH)]D; linker N-C via X3) | 4.2 | 29 | 33
2 | C/C=C1/NC(=O)[C@H](CCN)NC(=O)[C@H](CC(C)C)NC(=O)[C@H](CN)NC(=O)C[C@@H](CCCCCCC)OC(=O)[C@H](CC(=O)O)NC(=O)[C@H](C(C)(C)O)NC(=O)[C@@H](Cc2ccccc2)NC(=O)[C@H](CN)NC(=O)[C@H]([C@@H](C)O)NC1=O [Compound 2, isopedopeptin B] ([Dap]L[Dab][X1]T[Dap][dF][Val(3-OH)]D; linker N-C via X2) | < 0.8 | 50 | 56
3 | C/C=C1/NC(=O)[C@H](CCN)NC(=O)[C@H](CC(C)C)NC(=O)[C@H](CN)NC(=O)C[C@@H](CC=CCCCCCC)OC(=O)[C@H](CC(=O)O)NC(=O)[C@H](C(C)(C)O)NC(=O)[C@@H](Cc2ccccc2)NC(=O)[C@H](CN)NC(=O)[C@H]([C@@H](C)O)NC1=O [Compound 3, isopedopeptin C] ([Dap]L[Dab][X1]T[Dap][dF][Val(3-OH)]D; linker N-C via X7) | 3 | 29 | 33
4 | C/C=C1/NC(=O)[C@H](CCN)NC(=O)[C@H](CC(C)C)NC(=O)[C@H](CN)NC(=O)C[C@@H](CCCCCCC)OC(=O)[C@H](CC(=O)O)NC(=O)[C@H](C(C)C)NC(=O)[C@@H](Cc2ccccc2)NC(=O)[C@H](CN)NC(=O)[C@H]([C@@H](C)O)NC1=O [Compound 4, isopedopeptin D] ([Dap]L[Dab][X1]T[Dap][dF]VD; linker N-C via X2) | 9.1 | 9 | 10
5 | C/C=C1/NC(=O)[C@H](CCN)NC(=O)[C@H](CC(C)C)NC(=O)[C@H](CN)NC(=O)C[C@@H](CCCCCC(C)C)OC(=O)[C@H](CC(=O)O)NC(=O)[C@H](C(C)C)NC(=O)[C@@H](Cc2ccccc2)NC(=O)[C@H](CN)NC(=O)[C@H]([C@@H](C)O)NC1=O [Compound 5, Isopedopeptin E] ([Dap]L[Dab][X1]T[Dap][dF]VD; linker N-C via X3) | 5.2 | 13 | 14
6 | C/C=C1/NC(=O)[C@H](CCN)NC(=O)[C@H](CC(C)C)NC(=O)[C@H](CN)NC(=O)C[C@@H](CCCCCCCC(C)C)OC(=O)[C@H](CC(=O)O)NC(=O)[C@H](C(C)(C)O)NC(=O)[C@@H](Cc2ccccc2)NC(=O)[C@H](CN)NC(=O)[C@H]([C@@H](C)O)NC1=O [Compound 6, Isopedopeptin F] ([Dap]L[Dab][X1]T[Dap][dF][Val(3-OH)]D; linker N-C via X5) | 27.5 | 9 | 10
7 | C/C=C1/NC(=O)[C@H](CCN)NC(=O)[C@H](CC(C)C)NC(=O)[C@H](CN)NC(=O)C[C@@H](CCCC=CCCC(C)C)OC(=O)[C@H](CC(=O)O)NC(=O)[C@H](C(C)C)NC(=O)[C@@H](Cc2ccccc2)NC(=O)[C@H](CN)NC(=O)[C@H]([C@@H](C)O)NC1=O [Compound 7, Isopedopeptin G] ([Dap]L[Dab][X1]T[Dap][dF]VD; linker N-C via X4) | 14.1 | 11 | 13
8 | C/C=C1/NC(=O)[C@H](CCN)NC(=O)[C@H](CC(C)C)NC(=O)[C@H](CN)NC(=O)C[C@@H](CC=CCCCCC(C)C)OC(=O)[C@H](CC(=O)O)NC(=O)[C@H](C(C)C)NC(=O)[C@@H](Cc2ccccc2)NC(=O)[C@H](CN)NC(=O)[C@H]([C@@H](C)O)NC1=O [Compound 8, Isopedopeptin H] ([Dap]L[Dab][X1]T[Dap][dF]VD; linker N-C via X6) | 52.3 | 14 | 16
